Target: GPR40 (Homo sapiens, UniProt O14842)
Test: Cell-based aequorin assay (CHO cells stably expressing GPR40 and aequorin)
Parameters: expressed in transfected cells; host or cells: CHO cells stably transfected with GPR40 and aequorin
Conditions: activation of human GPR40, CHO cells, 0.01% HSA
Summary of the method: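 CHO cells stably co-expressing GPR40 and aequorin, loaded with coelenterazine (1 ug/mL, 2 h, room temperature) in H/HBSS with 20 mM Hepes and 0.01% fatty acid-free HSA. Serially diluted compounds added; luminescence recorded over 20 s. EC50 from dose-response of maximum relative light units.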

GPR40, sequence (O14842 whole entry): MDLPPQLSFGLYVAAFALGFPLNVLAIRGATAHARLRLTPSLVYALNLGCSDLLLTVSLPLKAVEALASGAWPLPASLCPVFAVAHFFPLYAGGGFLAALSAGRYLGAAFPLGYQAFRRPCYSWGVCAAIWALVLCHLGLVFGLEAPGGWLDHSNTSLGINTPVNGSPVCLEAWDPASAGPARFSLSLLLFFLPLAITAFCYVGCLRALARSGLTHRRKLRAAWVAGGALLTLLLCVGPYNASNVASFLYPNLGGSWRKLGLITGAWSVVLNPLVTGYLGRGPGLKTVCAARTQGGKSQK

Compound	EC50 [nM]
CCC[C@H](CC(=O)O)c1cccc(OCc2ccc(-c3ccc(OC)nc3)c(C(C)(C)C)c2)c1 (single isomer, unassigned) [Example 67.19, (3R)-3-(3-(((3-(1,1-Dimethylethyl)-4-(6-(methyloxy)-3-pyridinyl)phenyl)methyl)oxy)phenyl)hexanoic acid or (3S)-3-(3-(((3-(1,1-dimethylethyl)-4-(6-(methyloxy)-3-pyridinyl)phenyl)methyl)oxy)phenyl)hexanoic acid]	1000 to 10000
CCC(C)(C)C(OC)c1cc(COc2cccc(C(CC(=O)O)CC3CC3)c2)ccc1-c1cc(OC)ccc1F (single isomer, unassigned) [Example 69.41, (3R)-4-Cyclopropyl-3-(3-(((2-((1S)-2,2-dimethyl-1-(methyloxy)butyl)-2′-fluoro-5′-(methyloxy)-1,1′-biphenyl-4-yl)methyl)oxy)phenyl)butanoic acid or (3R)-4-cyclopropyl-3-(3-(((2-((1S)-2,2-dimethyl-1-(methyloxy)butyl)-2′-fluoro-5′-(methyloxy)-1,1′-biphenyl-4-yl)methyl)oxy)phenyl)butanoic acid]	100 to 1000
COc1cccc(-c2ccc(COc3cccc(CCC(=O)O)c3)cc2C)c1 [Example 1, 3-(3-(((2-Methyl-3′-(methyloxy)-1,1′-biphenyl-4-yl)methyl)oxy)phenyl)propanoic acid]	1000 to 10000
C=C[C@H](CC(=O)O)c1cccc(OCc2ccc(-c3cc(OC)ccc3F)c(C(C)(C)C)c2)c1 (single isomer, unassigned) [Example 15, (3S)-3-(3-(((2-(1,1-Dimethylethyl)-2′-fluoro-5′-(methyloxy)-1,1′-biphenyl-4-yl)methyl)oxy)phenyl)-4-pentenoic acid or (3R)-3-(3-(((2-(1,1-dimethylethyl)-2′-fluoro-5′-(methyloxy)-1,1′-biphenyl-4-yl)methyl)oxy)phenyl)-4-pentenoic acid]	1000 to 10000
COc1ccc(F)c(-c2ccc(COc3cccc(C(CC(=O)O)C4CC4)c3F)cc2C2=CCCC2(C)C)c1 (single isomer, unassigned) [Example 99.1, (3R)-3-Cyclopropyl-3-(3-(((2-(5,5-dimethyl-1-cyclopenten-1-yl)-2′-fluoro-5′-(methyloxy)-1,1′-biphenyl-4-yl)methyl)oxy)-2-fluorophenyl)propanoic acid or (3S)-3-cyclopropyl-3-(3-(((2-(5,5-dimethyl-1-cyclopenten-1-yl)-2′-fluoro-5′-(methyloxy)-1,1′-biphenyl-4-yl)methyl)oxy)-2-fluorophenyl)propanoic acid]	1000 to 10000
CC(=O)c1cccc(-c2ccc(COc3cccc([C@@H](CC(=O)O)C4CC4)c3)cc2[C@H]2CCCC2(C)C)c1 (single isomer, unassigned) [Example 66.74, (S)-3-(3-((S)-3-((S)-2,2-Dimethylcyclopentyl)-4-(3-acetylphenyl)benzyloxy)phenyl)-3-cyclopropylpropanoic acid or stereoisomer thereof]	1000 to 10000
COc1ccc(F)c(-c2ccc(COc3cccc(CCC(=O)O)c3)cc2C)c1 [Example 2, 3-(3-(((2′-Fluoro-2-methyl-5′-(methyloxy)-1,1′-biphenyl-4-yl)methyl)oxy)phenyl)propanoic acid]	100 to 1000
COc1ccc(F)c(-c2ccc(COc3cccc(C(CC(=O)O)CC4CC4)c3)cc2COCC=C(C)C)c1 (single isomer, unassigned) [Example 69.45, (3R)-4-Cyclopropyl-3-(3-(((2′-fluoro-2-(((3-methyl-2-butenyl)oxy)methyl)-5′-(methyloxy)-1,1′-biphenyl-4-yl)methyl)oxy)phenyl)butanoic acid or (3S)-4-cyclopropyl-3-(3-(((2′-fluoro-2-(((3-methyl-2-butenyl)oxy)methyl)-5′-(methyloxy)-1,1′-biphenyl-4-yl)methyl)oxy)phenyl)butanoic acid]	1000 to 10000
COc1ccc(F)c(-c2ccc(COc3cccc([C@@H](CC(=O)O)C4CC4)c3F)cc2[C@H](O)C2(C)CC2)c1 (single isomer, unassigned) [Example 83.18]	1000 to 10000
CCCC(CC(=O)O)c1cccc(OCc2ccc(-c3cccc(OC)n3)cc2)c1 (single isomer, unassigned) [Example 67.22, (3R)-3-(3-(((4-(6-(Methyloxy)-2-pyridinyl)phenyl)methyl)oxy)phenyl)hexanoic acid or (3S)-3-(3-(((4-(6-(methyloxy)-2-pyridinyl)phenyl)methyl)oxy)phenyl)hexanoic acid]	1000 to 10000
COc1ccc(F)c(-c2ccc(COc3cccc(C(C)CC(=O)O)c3)cc2OCC(C)(C)C)c1 (single isomer, unassigned) [Example 64.1, (3R)-3-(3-(((2-((2,2-Dimethylpropyl)oxy)-2′-fluoro-5′-(methyloxy)-1,1′-biphenyl-4-yl)methyl)oxy)phenyl)butanoic acid or (3S)-3-(3-(((2-((2,2-dimethylpropyl)oxy)-2′-fluoro-5′-(methyloxy)-1,1′-biphenyl-4-yl)methyl)oxy)phenyl)butanoic acid]	100 to 1000
CCC[C@H](CC(=O)O)c1cccc(OCc2ccc(-c3cc(OC)ccc3F)c(OC3CCCCO3)c2)c1 (single isomer, unassigned) [Example 67.14, (3R)-3-(3-(((2′-Fluoro-5′-(methyloxy)-2-(tetrahydro-2H-pyran-2-yloxy)-1,1′-biphenyl-4-yl)methyl)oxy)phenyl)hexanoic acid or (3S)-3-(3-(((2′-fluoro-5′-(methyloxy)-2-(tetrahydro-2H-pyran-2-yloxy)-1,1′-biphenyl-4-yl)methyl)oxy)phenyl)hexanoic acid]	100 to 1000
CO[C@@H](c1cc(COc2cccc([C@@H](CC(=O)O)C3CC3)c2)ccc1-c1ccccc1F)C(C)(C)C (single isomer, unassigned) [Example 66.32]	100 to 1000
CCCCOc1cc(COc2cccc([C@H](C)CC(=O)O)c2)ccc1-c1ccccc1F (single isomer, unassigned) [Example 24, (3R)-3-(3-(((2-(Butyloxy)-2′-fluoro-1,1′-biphenyl-4-yl)methyl)oxy)phenyl)butanoic acid or (3S)-3-(3-(((2-(butyloxy)-2′-fluoro-1,1′-biphenyl-4-yl)methyl)oxy)phenyl)butanoic acid]	1000 to 10000
CCCCOc1cc(COc2cccc([C@H](C)CC(=O)O)c2)ccc1-c1cc(OCC)ccc1F (single isomer, unassigned) [Example 23, (3R)-3-(3-(((2-(Butyloxy)-5′-(ethyloxy)-2′-fluoro-1,1′-biphenyl-4-yl)methyl)oxy)phenyl)butanoic acid or (3S)-3-(3-(((2-(butyloxy)-5′-(ethyloxy)-2′-fluoro-1,1′-biphenyl-4-yl)methyl)oxy)phenyl)butanoic acid]	1000 to 10000
COc1ccc(F)c(-c2ccc(COc3cccc([C@@H](CC(=O)O)CC4CC4)c3)cc2S(=O)(=O)C(C)C)c1 (single isomer, unassigned) [Example 69.25, (R)-4-Cyclopropyl-3-{3-[2′-fluoro-5′-methoxy-2-(propane-2-sulfonyl)-biphenyl-4-ylmethoxy]-phenyl}-butyric acid or (S)-4-cyclopropyl-3-{3-[2′-fluoro-5′-methoxy-2-(propane-2-sulfonyl)-biphenyl-4-ylmethoxy]-phenyl}-butyric acid]	1000 to 10000

From patent US8030354B2, “Substituted biphenyl GPR40 modulators” (Amgen Inc., priority 2007, dated 2011)
